Key:
[1] = test system: yellow nutsedge; assay: Test C preemergence; format: in vivo, Cyperus esculentus; details: for Nutsedge, Yellow plant response rating: preemergence
From the text: (§1) Seeds of plant species selected from blackgrass (Alopecurus myosuroides), Italian ryegrass (Lolium multiflorum), wheat, winter (winter wheat, Triticum aestivum), galium (catchweed bedstraw, Galium aparine), corn (Zea mays), large (Lg) crabgrass (Digitaria sanguinalis), giant foxtail (Setaria faberii), johnsongrass (Sorghum halepense), lambsquarters (Chenopodium album), morningglory (Ipomoea coccinea), yellow nutsedge (Cyperus esculentus), pigweed (Amaranthus retroflexus), ragweed (common ragweed, Ambrosia elatior), soybean (Glycine max), barnyardgrass (Echinochloa crus-galli), oilseed rape (Brassica napus), waterhemp (common waterhemp, Amaranthus rudis), kochia (Kochia scoparia), wild oat (Avena fatua), surinam grass (Brachiaria decumbens), foxtail, green (green foxtail, Setaria viridis), goosegrass (Eleusine indica), bromegrass, downy (downy bromegrass, Bromus tectorum), nightshade (eastern black nightshade, Solanum ptycanthum), cocklebur (common cocklebur, Xanthium strumarium), cupgrass, woolly (woolly cupgrass, Eriochloa villosa), bermudagrass (Cynodon dactylon), sunflower, (common oilseed sunflower, Helianthus annuus), Russian thistle (Salsola kali), and velvetleaf (Abutilon theophrasti) were planted into a blend of loam soil and sand and treated preemergence with test chemicals formulated in a non-phytotoxic solvent mixture which included a surfactant.
(§2) At the same time, plants selected from these crop and weed species and also barley, winter (winter barley, Hordeum vulgare), windgrass (Apera spica-venti), chickweed (common chickweed, Stellaria media), deadnettle (henbit deadnettle, Lamium amplexicaule), and canarygrass (littleseed canarygrass, Phalaris minor) were planted in pots containing Redi-Earth® planting medium (Scotts Company, 14111 Scottslawn Road, Marysville, Ohio 43041) comprising spaghnum peat moss, vermiculite, wetting agent and starter nutrients and treated with postemergence applications of test chemicals formulated in the same manner. Plants ranged in height from 2 to 18 cm (1- to 4-leaf stage) for postemergence treatments. Treated plants and controls were maintained in a greenhouse for 13 to 15 days, after which time all species were compared to controls and visually evaluated. Plant response ratings, summarized in Table C, are based on a scale of 0 to 100 where 0 is no effect and 100 is complete control. A dash (-) response means no test result.

[2] = test system: barnyardgrass; assay: Test C preemergence; format: in vivo, Echinochloa crus-galli; details: for Barnyardgrass plant response rating: preemergence; for Plant response rating, Barnyardgrass: Preemergence, scale 0 to 100, 0 no effect, 100 complete control
From the text: as §1, §2

[3] = test system: pigweed; assay: Test C preemergence; format: in vivo, Amaranthus retroflexus; details: for Pigweed plant response rating: preemergence; for Plant response rating, Pigweed: Preemergence, scale 0 to 100, 0 no effect, 100 complete control
From the text: as §1, §2

[4] = test system: giant foxtail; assay: Test A preemergence; format: in vivo, Setaria faberii
In short: (§3)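 Greenhouse pot test, loam/sand soil. Formulation: non-phytotoxic solvent mix plus surfactant. Pre: directed spray onto soil after sowing. Post: plants at 1–2 leaf, 2–10 cm. Rated visually vs untreated controls at ~10 d, 0 (no effect) to 100 (complete control).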

[5] = test system: pigweed; assay: Test A preemergence; format: in vivo, Amaranthus retroflexus
In short: as §3

[6] = test system: giant foxtail; assay: Test C preemergence; format: in vivo, Setaria faberii; details: for Foxtail, Giant plant response rating: preemergence; for Plant response rating, Foxtail, Giant: Preemergence, scale 0 to 100, 0 no effect, 100 complete control
From the text: as §1, §2

[7] = test system: rice; assay: Test B flooded paddy test; format: in vivo, Oryza sativa; details: Flood, 250 g ai/ha; 0 to 100 scale where 0 is no effect and 100 is complete control
In short: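 Scores from 0 (no effect) to 100 (complete control) are visual comparisons with controls, taken 13 to 15 days after compound was applied into floodwater 3 cm deep around 2-leaf plants.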

[8] = 16 g ai/ha, scale 0 to 100 (0 no effect, 100 complete control)
[9] = 62 g ai/ha, scale 0 (no effect) to 100 (complete control)
[10] = 125 g ai/ha, scale 0 (no effect) to 100 (complete control)
[11] = 125 g ai/ha, 0 to 100 scale where 0 is no effect and 100 is complete control
[12] = 500 g ai/ha, 0 to 100 scale where 0 is no effect and 100 is complete control
[13] = 31 g ai/ha, 0 to 100 scale where 0 is no effect and 100 is complete control, visual, approximately 10 days

SMILES | Nutsedge, Yellow plant response rating [1, 8] | Nutsedge, Yellow plant response rating [1, 9] | Nutsedge, Yellow plant response rating [1, 10] | Barnyardgrass plant response rating [2, 8] | Barnyardgrass plant response rating [2, 9] | Barnyardgrass plant response rating [2, 10] | Plant response rating, Barnyardgrass ([2]; 31 g ai/ha) | Pigweed plant response rating [3, 8] | Pigweed plant response rating [3, 9] | Pigweed plant response rating [3, 10] | Plant response rating, Foxtail, Giant [4, 11] | Plant response rating, Pigweed [5, 11] | Foxtail, Giant plant response rating [6, 8] | Foxtail, Giant plant response rating [6, 9] | Foxtail, Giant plant response rating [6, 10] | Plant response rating, Foxtail, Giant ([6]; 31 g ai/ha) | Plant response rating, Rice [7] | Plant response rating, Foxtail, Giant [4, 13] | Plant response rating, Pigweed [5, 13] | further results
FCc1cccc(Oc2ncc(F)cn2)c1-n1cc(C(F)(F)F)cn1 [Compound 118] | 0 | 25 | 70 | 20 | 100 | 100 | 80 | 90 | 100 | 100 | 100 | 100 | 25 | 95 | 100 | 75 | 60 | – | – | Plant response rating, Nutsedge, Yellow ([1]; Preemergence, 31 g ai/ha, scale 0 to 100, 0 no effect, 100 complete control): 5; Plant response rating, Pigweed ([3]; 31 g ai/ha): 100; Foxtail, Giant plant response rating (0 to 100 scale) ([4]; 31 g ai/ha): 80; Pigweed plant response rating (0 to 100 scale) ([5]; 31 g ai/ha): 100
COc1cnn(-c2c(C#N)cccc2Oc2ncc(Cl)cn2)c1 [Compound 137] | 0 | 5 | 10 | 0 | 10 | 40 | 5 | 75 | 90 | 100 | 90 | 90 | 35 | 60 | 90 | 5 | 0 | – | – | Foxtail, Giant plant response rating [4, 12]: 100; Pigweed plant response rating [5, 12]: 100
N#Cc1cnn(-c2c(CF)cccc2Oc2ncc(F)cn2)c1 [Compound 151] | 0 | 5 | 25 | 5 | 70 | 100 | 5 | 100 | 100 | 100 | 100 | 90 | 5 | 80 | 100 | 35 | 20 | 100 | 90 | –
FCc1cccc(Oc2ncc(Cl)cn2)c1-n1cc(Cl)cn1 [Compound 250] | 0 | – | 5 | 5 | – | 100 | – | 85 | – | 100 | – | – | 5 | – | 100 | – | 0 | 30 | 80 | Plant response rating, Barnyardgrass ([2]; 62 g ai/ha): 50; Plant response rating, Pigweed ([3]; 62 g ai/ha): 100; Foxtail, Giant plant response rating (0 to 100 scale) ([4]; 125 g ai/ha): 100; Pigweed plant response rating (0 to 100 scale) ([5]; 125 g ai/ha): 100; Plant response rating, Foxtail, Giant ([6]; 62 g ai/ha): 100

Source: patent US9695155B2, “Herbicidal substituted pyrimidinyloxy benzene compounds” (E. I. DU PONT DE NEMOURS AND COMPANY, priority 2013, dated 2017)
